This passage reports IC50 results from article PMC3292874 (Bioconjugate Chemistry, 2011).

SMILES strings stand for the structures.

The target of this assay is PC-PLC (phosphatidylcholine-specific phospholipase C) (Bacillus cereus, UniProt P09598). Put plainly: fluorescence of dequenched Pyro-PtdEtn-BHQ hydrolysis, initial rate. The assay is classed as biochemical.
Sequence of PC-PLC (phosphatidylcholine-specific phospholipase C) (P09598 39-283 limits assumed): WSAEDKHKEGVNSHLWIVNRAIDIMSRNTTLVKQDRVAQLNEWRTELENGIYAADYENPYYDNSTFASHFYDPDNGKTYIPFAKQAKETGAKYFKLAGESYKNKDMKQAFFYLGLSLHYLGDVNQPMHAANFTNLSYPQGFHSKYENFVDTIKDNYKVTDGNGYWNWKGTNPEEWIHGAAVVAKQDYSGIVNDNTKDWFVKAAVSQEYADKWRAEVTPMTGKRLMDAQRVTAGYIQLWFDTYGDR

A word on the IC50: it is the concentration that gives 50% inhibition. High values mean a need for much substance, low ones inhibition by little substance. For the molecule `S=C(S)OC1CC2CC1C1CCCC21` (stereo not shown) [D609], the concentration for half-maximal inhibition (IC50) amounted to 34 ± 8 µM.
